The results in this text go back to patent US5696117A, “Benzoxazine antimicrobial agents” (Ortho Pharmaceutical Corporation, priority 1995, dated 1997).

One test relates to gram negative bacteria. Kind of test: MIC antimicrobial assay, microdilution broth method (NCCLS), gram negative bacteria. In kind it is cell-based. As to conditions: range over the gram negative test organisms; 35° C., 16-20 hours. The method, then: (§1) 2. MIC Anitimicrobial Assay
(§2) The in vitro antimicrobial activity of the compounds was determined by the microdilution broth method following the test method from the National Committee for Laboratory Standards (NCCLS). This method is described in the NCCLS Document M7-A2, Vol. 10, No. 8 "Methods for Dilution Antimicrobial Susceptibility Test for Bacteria that Grow Aerobically--Second Edition."
(§3) In this method two-fold serial dilutions of drug in cation supplemented Mueller-Hinton broth are added to wells in microdilution trays. The test organisms are prepared by adjusting the turbidity of actively growing broth cultures so that the final concentration of test organism after it is added to the wells is approximately 5×10^4 CFUs/well.
(§4) Following inoculation of the microdilution trays, the trays are incubated at 35° C. for 16-20 hours and then read. […] The amount of growth in the wells containing the test compound is compared with the amount of growth in the growth-control wells (no test compound) used in each tray. As set forth in Tables 1 and 2, compounds of the present invention were tested against a variety of Gram+ and Gram- pathogenic bacteria resulting in a range of activities, from 1→128 μg/mL depending on the organism tested. The following test organisms were utilized in the assay:
Escherichia coli oc 2530 ss
Klebsiella pneumoniae oc 1943
Pseudomonas aeroginosa oc 161
Pseudomonas aeroginosa ATCC 27853
Background: In broth dilution the organism is exposed to a series of concentrations in liquid medium.

In a further test the test system is gram positive bacteria. The test is described as follows: MIC antimicrobial assay, microdilution broth method (NCCLS), gram positive bacteria. In kind it is cell-based. As to conditions: range over the gram positive test organisms; 35° C., 16-20 hours. The protocol:
as §1, §2, §3, §4
Enterococcus faecalis ATCC 29212
Enterococcus faecalis oc 3041
Enterococcus faecium oc 2993
Methicillin resistant Staphylococcus aureus oc 2089
Methicillin resistant Staphylococcus aureus oc667
Staphylococcus aureus ATCC 29213
Staphylococcus aureus ATCC 6538
Staphylococcus epidermidis oc 2603

In the next test the target is T1, Kinase A and SpoOF (Bacillus subtilis, UniProt P16497).
T1 construct: made in house; host or cells: recombinant E. coli (overexpression)
T1 sequence (P16497 1-606): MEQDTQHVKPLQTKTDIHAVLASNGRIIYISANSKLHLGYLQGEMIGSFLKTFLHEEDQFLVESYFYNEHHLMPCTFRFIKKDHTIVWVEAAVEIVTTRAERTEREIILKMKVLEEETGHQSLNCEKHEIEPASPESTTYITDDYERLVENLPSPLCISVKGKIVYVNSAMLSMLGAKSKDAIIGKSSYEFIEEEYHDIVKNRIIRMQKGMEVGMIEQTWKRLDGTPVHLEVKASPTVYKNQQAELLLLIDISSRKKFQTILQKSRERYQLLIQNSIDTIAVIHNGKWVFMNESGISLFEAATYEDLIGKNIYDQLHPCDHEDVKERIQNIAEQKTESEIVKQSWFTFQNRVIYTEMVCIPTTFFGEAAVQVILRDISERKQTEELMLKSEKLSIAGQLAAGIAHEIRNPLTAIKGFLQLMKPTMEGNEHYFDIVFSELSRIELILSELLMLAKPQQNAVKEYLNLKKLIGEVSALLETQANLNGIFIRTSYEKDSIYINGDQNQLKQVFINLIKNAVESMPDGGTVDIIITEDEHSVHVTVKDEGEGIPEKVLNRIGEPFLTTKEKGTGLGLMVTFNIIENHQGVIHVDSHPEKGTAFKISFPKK
Kind of test: Autophosphorylation of Kinase A and Transphosphorylation of SpoOF Assay (HPK in vitro assay). In kind it is biochemical. As to conditions: inhibition of KinA autophosphorylation / SpoOF transphosphorylation, inhibitor concentrations from 1 to 500 μM. The method in brief:
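Recombinant KinA and SpoOF (from E. coli) preincubated 15 min on ice with compound (1.0 mM solution in 5% DMSO, stock), then 10 min at room temperature with [32P]ATP. Labelled proteins resolved by SDS gel, quantified by phosphoimager; IC50 from 1–500 μM compound range.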

Structures are written as SMILES. ≈ marks a conversion by molar mass, not a printed value.

Regarding `NCCc1ccc(OCCC2Oc3ccccc3N(Cc3ccc(Cl)cc3)C2=O)cc1` (centres unmarked) [Compound 6, 2-[2-[4-(2-Aminoethyl)phenoxy]ethyl]-4-(4-chlorobenzyl)-3,4-dihydro-3-oxo-2H-1,4-benzoxazine], the MIC – broadly, the least concentration at which growth counts as inhibited – in the test with gram negative bacteria is 2 to 64 µg/mL (≈ 4.58 to 146 µM); in the test with gram positive bacteria, 1 to 2 µg/mL (≈ 2.29 to 4.58 µM). Also, the concentration for half-maximal inhibition (IC50) (usually the midpoint of a concentration-inhibition curve) at Kinase A and SpoOF was 61 µM.
On the same counts, the results for `NCCc1cccc(OCCC2Oc3ccccc3N(Cc3ccc(Cl)cc3)C2=O)c1` (centres unmarked) [Compound 8, 2-[2-[3-(2-Aminoethyl)phenoxy]ethyl]-4-(4-chlorobenzyl)-3,4-dihydro-3-oxo-2H-1,4-benzoxazine] are 8 to 128 µg/mL (≈ 18.3 to 293 µM), 8 to 16 µg/mL (≈ 18.3 to 36.6 µM) and 89 µM.
On the same counts, the results for `CCCCCN1C(=O)C(CCOc2ccc(CCNC(=N)N)cc2)Oc2ccccc21` (centres unmarked) [Compound 61, 3,4-Dihydro-2-{2-[4-(2-guanidinoethyl)phenoxy]ethyl}-3-oxo-4-pentyl-2H-1,4-benzoxazine] are 4 to 64 µg/mL (≈ 9.42 to 151 µM), 4 to 8 µg/mL (≈ 9.42 to 18.8 µM) and 41 µM.
Turning to `NCc1cccc(OCCC2Oc3ccccc3N(Cc3cccc(Cl)c3)C2=O)c1` (centres unmarked) [Compound 74, 2-{2-[3-(Aminomethyl)phenoxy]ethyl}-4-(3-chlorobenzyl)-3,4-dihydro-3-oxo-2H-1,4-benzoxazine], in the test on gram positive bacteria, the MIC is 8 to 16 µg/mL (≈ 18.9 to 37.8 µM). In addition, the IC50 against Kinase A and SpoOF is 81 µM.
For `NCCCc1ccc(OCCC2Oc3ccccc3N(Cc3cccc(Cl)c3)C2=O)cc1` (centres unmarked) [Compound 76, 2-{2-[4-(3-Aminopropyl)phenoxy]ethyl}-4-(3-chlorobenzyl)-3,4-dihydro-3-oxo-2H-1,4-benzoxazine], in that order: 8 µg/mL (≈ 17.7 µM) and 32 µM.
`N=C(N)NCc1ccc(OCCC2Oc3ccccc3N(Cc3cccc(Cl)c3)C2=O)cc1` (centres unmarked) [Compound 78, 4-(3-Chlorobenzyl)-3,4-dihydro-2-{2-[4-(guanidinylmethyl)phenoxy]ethyl}-3-oxo-2H-1,4-benzoxazine]: in the test on gram positive bacteria, the MIC fell in the range of 1 to 4 µg/mL (≈ 2.15 to 8.6 µM). Further, the IC50 on Kinase A and SpoOF came to 32 µM.
For `NCCc1ccc(OCCC2Oc3ccccc3N(Cc3cccc(Cl)c3)C2=O)cc1` (centres unmarked) [Compound 79, 2-{2-[4-(2-Aminoethyl)phenoxy]ethyl}-4-(3-chlorobenzyl)-3,4-dihydro-3-oxo-2H-1,4-benzoxazine], in that order: 8 to 16 µg/mL (≈ 18.3 to 36.6 µM) and 78 µM.
On the same counts, the results for `N=C(N)NCCc1ccc(OCCC2Oc3ccc([N+](=O)[O-])cc3N(Cc3ccccc3Cl)C2=O)cc1` (centres unmarked) [Compound 89, 3,4-Dihydro-2-{2-[4-(2-guanidinoethyl)-phenoxy]ethyl}-6-nitro-4-(2-chlorobenzyl)-3-oxo-2H-1,4-benzoxazine] are 1 to 4 µg/mL (≈ 1.91 to 7.63 µM) and 17 µM.
As to `N=C(N)NCCc1ccc(OCCC2Oc3ccc(N)cc3N(Cc3cccc(Cl)c3)C2=O)cc1` (centres unmarked) [Compound 92, 6-Amino-4-(3-chlorobenzyl)-3,4-dihydro-2-{2-[4-(2-guanidinoethyl)phenoxy]ethyl}-3-oxo-2H-1,4-benzoxazine], the MIC in the test on gram positive bacteria fell in the range of 2 to 16 µg/mL (≈ 4.05 to 32.4 µM). At Kinase A and SpoOF, the half-maximal inhibitory concentration (IC50) is recorded as 34 µM.
For `N=C(N)NCc1ccc(OCCC2CN(Cc3ccccc3Cl)c3ccccc3O2)cc1` (centres unmarked) [Compound 145, 2-[2-[4-(2-guanidinomethyl)phenoxy]ethyl]-4-(2-chlorobenzyl)-3,4-dihydro-2H-1,4-benzoxazine], in that order: 1 to 2 µg/mL (≈ 2.22 to 4.43 µM) and 23 µM.
